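Compound exposure: 48 hours, 5 concentrations, 96-well plates. GI50 marks 50% less growth.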 The source made the active and inactive calls. Rule as the data show it: active = GI50 up to about 1.1 µM and inactive = higher.
Legend:
Assay in all cases: DTP human tumour cell line panel, 48 h
786-0 = system: 786-0
A549 = system: A549
ACHN = system: ACHN
COLO 205 = system: COLO 205
HCT-15 = system: HCT-15
HOP-62 = system: HOP-62
IGROV-1 = system: IGROV-1
K562 = system: K562
KM12 = system: KM12
LOX IMVI = system: LOX IMVI
M14 = system: M14
MCF7 = system: MCF7
MDA-N = system: MDA-N
NCI-H522 = system: NCI-H522
OVCAR-5 = system: OVCAR-5
RXF 393 = system: RXF 393
SK-OV-3 = system: SK-OV-3
SN12C = system: SN12C
UACC-62 = system: UACC-62
HL-60 = system: HL-60

Structure (SMILES) | GI50 (786-0) | GI50 (A549) | GI50 (ACHN) | GI50 (COLO 205) | GI50 (HCT-15) [µM] | GI50 (HOP-62) | GI50 (IGROV-1) | GI50 (K562) | GI50 (KM12) | GI50 (LOX IMVI) | GI50 (M14) | GI50 (MCF7) | GI50 (MDA-N) | GI50 (NCI-H522) | GI50 (OVCAR-5) | GI50 (RXF 393) | GI50 (SK-OV-3) | GI50 (SN12C) | GI50 (UACC-62) | GI50 (HL-60)
Cc1[nH]c2c(c1C)S(=O)(=O)c1cc3ccccc3nc1N2 | 16.6 µM (inactive) | 36.3 µM (inactive) | 29.5 µM (inactive) | 20 µM (inactive) | 22.1 | 18.2 µM (inactive) | 10.1 µM (inactive) | 10.9 µM (inactive) | 27.9 µM (inactive) | 10.6 µM (inactive) | 20 µM (inactive) | 5.15 µM (inactive) | 15.7 µM (inactive) | 21.4 µM (inactive) | 19.7 µM (inactive) | 19.3 µM (inactive) | 30.8 µM (inactive) | 16.4 µM (inactive) | 42.7 µM (inactive) | –
Fc1cccc(F)c1C1SCC2=Nc3ccccc3CN21 (stereo not drawn) | 32.4 µM (inactive) | 63 µM (inactive) | 33.7 µM (inactive) | > 100 µM (inactive) | > 100 | 20.8 µM (inactive) | 42.5 µM (inactive) | 92.3 µM (inactive) | 54 µM (inactive) | > 100 µM (inactive) | 91.2 µM (inactive) | 35 µM (inactive) | > 100 µM (inactive) | – | 56 µM (inactive) | 23.9 µM (inactive) | 36.8 µM (inactive) | > 100 µM (inactive) | 41 µM (inactive) | 44.2 µM (inactive)
CCOC(=O)Nc1cc2c(c(N)n1)N=C(c1ccc(OC)cc1)CN2 | 0.00363 µM (active) | 0.00258 µM (active) | 0.00104 µM (active) | 0.00986 µM (active) | 0.000621 | 0.00015 µM (active) | – | < 0.01 µM (active) | 0.000446 µM (active) | 0.000315 µM (active) | 0.000309 µM (active) | 0.00434 µM (active) | < 0.0001 µM (active) | 0.00277 µM (active) | 0.0158 µM (active) | 0.0112 µM (active) | 0.0385 µM (active) | 0.00436 µM (active) | < 0.0001 µM (active) | 0.0015 µM (active)
NC(=O)SCC(=O)Nc1ccc2cccc3c2c1CC3 | 18.9 µM (inactive) | > 100 µM (inactive) | 22.8 µM (inactive) | > 100 µM (inactive) | 16.6 | 52.1 µM (inactive) | > 100 µM (inactive) | 12.8 µM (inactive) | 36.7 µM (inactive) | 6.75 µM (inactive) | 21.8 µM (inactive) | 11 µM (inactive) | 21.8 µM (inactive) | > 100 µM (inactive) | 17.7 µM (inactive) | 26 µM (inactive) | – | 21.5 µM (inactive) | 13.7 µM (inactive) | 3.9 µM (inactive)
Nc1ccc(-c2nc3cc(F)ccc3s2)cc1Br | 59 µM (inactive) | 8.97 µM (inactive) | 0.621 µM (active) | 0.377 µM (active) | 0.144 | 12.7 µM (inactive) | < 0.01 µM (active) | – | 10.4 µM (inactive) | > 51.2 µM (inactive) | > 95.5 µM (inactive) | < 0.0111 µM (active) | > 100 µM (inactive) | > 42.8 µM (inactive) | 0.0904 µM (active) | 25.5 µM (inactive) | > 59 µM (inactive) | > 73.5 µM (inactive) | > 84.1 µM (inactive) | 4.71 µM (inactive)
Cc1c(O)oc2ccccc2c1=O | > 100 µM (inactive) | > 100 µM (inactive) | > 100 µM (inactive) | > 100 µM (inactive) | > 100 | > 100 µM (inactive) | > 100 µM (inactive) | > 100 µM (inactive) | > 100 µM (inactive) | > 100 µM (inactive) | > 100 µM (inactive) | > 100 µM (inactive) | > 100 µM (inactive) | > 100 µM (inactive) | > 100 µM (inactive) | > 100 µM (inactive) | – | > 100 µM (inactive) | > 100 µM (inactive) | > 100 µM (inactive)
NS(=O)(=O)c1ccc(/N=N/c2nc3nc(O)nc(O)c3[nH]2)cc1 | > 100 µM (inactive) | > 100 µM (inactive) | > 100 µM (inactive) | > 100 µM (inactive) | > 100 | > 100 µM (inactive) | > 100 µM (inactive) | > 100 µM (inactive) | > 100 µM (inactive) | > 100 µM (inactive) | > 100 µM (inactive) | > 100 µM (inactive) | > 100 µM (inactive) | > 100 µM (inactive) | > 100 µM (inactive) | > 100 µM (inactive) | > 100 µM (inactive) | > 100 µM (inactive) | > 100 µM (inactive) | –

— ChEMBL document CHEMBL1201862, “PubChem BioAssay data set” (2004)
